Laboratory results taken from patent US11400019B2, “Sustained release drug delivery systems with reduced impurities and related methods” (DURECT CORPORATION, priority 2020, dated 2022).
Where a name gives a salt, the structure may show the parent alone. Read-outs that look alike come from different tables or passages of the source.

What was measured:
[1] = tested on: patients undergoing elective arthroscopic shoulder surgery; experiment: Example 13 trial: pain intensity and opioid rescue after arthroscopic shoulder surgery; type: in vivo, human
Method: Patients were screened 1 to 14 days before surgery at which time informed consent was obtained. Surgery was performed and the trial drug administered on Day 0. The trial was planned to be divided into two sequential cohorts, each with three treatment groups (a, b and c).
All patients received paracetamol (4 grams/day; 2 grams/day for body weight <66 kg for the first 72 hours) as background treatment. In case sufficient pain relief was not obtained, patients were allowed rescue medication in the form of morphine administered intravenously or orally, which consisted of oral morphine 10 mg at 1-hour intervals or, if unable to tolerate orally intake, intravenous (IV) morphine […] at 5-minute intervals. After 72 hours, subjects were allowed paracetamol and oral morphine on an as-needed basis. Patients recorded pain intensity as well as rescue medication in an electronic diary (eDiary).
Primary: The study had two primary endpoints. […] For the primary endpoints to be met, […] of PI on movement compared to placebo as well as superiority in total use of opioid analgesia needed to be shown. PI “on movement” reported on the NRS scale was summarized by treatment group and time, using descriptive statistics for continuous variables.
Time to first opioid rescue medication usage was defined as the duration between time of trial drug administration and the time of first opioid use

[2] = Example 13 trial: total and free bupivacaine plasma pharmacokinetics; conditions: human, in vivo
Method: Additionally, alpha 1 acid glycoprotein (AAG) plasma concentrations were measured in these two groups for correlation with free bupivacaine concentrations.
Using non-compartmental methods the following PK parameters were calculated from the plasma concentrations of each compound: area under the plasma concentration vs. time curve until the last measured concentration (AUCt), area under the plasma concentration vs. time curve extrapolated until infinity (AUCinf), the maximum concentration (Cmax), the time of its occurrence (tmax) and the apparent terminal elimination half-life (t1/2). […] The average […] of bupivacaine was approximately […]; free bupivacaine plasma concentrations generally paralleled those of total bupivacaine. There was a large interindividual variability of Cmax of both total and free bupivacaine. […] Note: Table 13.5 presents Geometric mean, ±68th percentile for Cmax rather than absolute min, max.

[3] = tested on: subjects undergoing elective outpatient laparoscopic cholecystectomy; experiment: Example 16 trial: pain intensity on movement after laparoscopic cholecystectomy; type: in vivo, human; conditions: Part 2 (N = 148 per group)
Method: Part 1: Pain intensity on movement measured at scheduled time points from 0 to 72 hours following test drug administration, adjusted for prior rescue medication use and analyzed by a mixed effect ANOVA model of repeated measures (MMRM).
Part 2: Pain intensity on movement measured at scheduled time points from 0 to 48 hours following test drug administration, adjusted for prior rescue medication use and analyzed by a mixed effect ANOVA model of repeated measures (MMRM).

[4] = tested on: subjects undergoing elective outpatient laparoscopic cholecystectomy; experiment: Example 16 trial: safety; type: in vivo
Text: The trial included: 1) a randomized, parallel-group, double-blind, placebo-controlled study (Part 1) and a randomized, parallel-group, double-blind, bupivacaine HCl active-controlled study (Part 2). The trial evaluated the efficacy and safety of Formulation A (bupivacaine, benzyl alcohol, sucrose acetate isobutyrate) as a delivery system in subjects undergoing elective outpatient laparoscopic cholecystectomy.
There were no fatalities in this trial. […]

[5] = tested on: patients undergoing laparotomy, laparoscopic cholecystectomy or laparoscopically-assisted colectomy; experiment: Example 17 phase 3 trial: pain intensity and opioid use in general surgical procedures; type: in vivo, human; conditions: for Total Morphine-equivalent Opioid Medication Use, MEDD 0-72 hours, Median (Q1, Q3) / Repeated Measures Pain Intensity on Movement, All Timepoints 0-72 hr, LS Mean (SE): ITT; for Pain Intensity on Movement AUC 0-24 hours, LS Mean (SE) / Pain Intensity on Movement AUC 0-48 hours, LS Mean (SE) / Pain Intensity on Movement AUC 0-72 hours, LS Mean (SE) / Pain Intensity on Movement AUC 24-48 hours, LS Mean (SE) / Pain Intensity on Movement AUC 48-72 hours, LS Mean (SE): Log Pad and Opioid Pain Scores; for Repeated Measures Pain Intensity on Movement, All Timepoints 0-72 hr, LS Mean (SE): LogPad Scores Only
[6] = Example 17 trial: plasma total bupivacaine pharmacokinetics; type: in vivo; conditions: human
Method: Plasma PK samples were analyzed for determination of total bupivacaine concentration only and none of the samples were analyzed for determination of free drug concentration.

[7] = tested on: patients undergoing general surgical procedures; experiment: Example 17 trial: safety including Holter monitoring; type: in vivo, human; conditions: Safety Population
Text: Patient safety was carefully monitored throughout the trial with traditional assessments of AEs, vital signs, routine laboratory testing, and Holter monitoring (i.e., continuous recording of electrocardiogram) for 3 days after dosing. Special attention was given to cardiovascular and neurological AE, as bupivacaine toxic effects are manifest in those two body systems. In addition, special assessments were done to monitor surgical wound condition and healing over the 30 days of the trial.

[8] = LOCF, ITT population, hours post-surgery
[9] = Cohort 2 (Laparoscopic Cholecystectomy)

Compound: CCCCN1CCCCC1C(=O)Nc1c(C)cccc1C (centres unmarked) [bupivacaine HCl, bupivacaine hydrochloride]
- Total IV morphine equivalent dose of opioid rescue medication, Median ([1]; 0-72 hours after surgery, ITT population): 8.0 mg
- median cumulative IV morphine-equivalent dose of opioids 0 to 72 hours ([1]; Formulation A 5 mL (660 mg) or bupivacaine HCl 20 mL (50 mg) subacromial, ITT): 8.0 mg
- Pain intensity at rest normalized AUC 1-72 hours, Mean (SD) ([1]; ITT population): 2.33 (1.76)
- Time to first use of opioid rescue medication, Median (95% CI) ([1]; ITT population, Kaplan-Meier estimates): 1.4 (1.0, 4.1) hours
- Pain intensity on movement, mean AUC (1-24) [1, 8]: 5.82
- Pain intensity on movement, mean AUC (1-48) [1, 8]: 5.56
- Pain intensity on movement, mean AUC (1-72) [1, 8]: 5.16
- Pain intensity on movement, mean AUC (24-48) [1, 8]: 5.31
- Pain intensity on movement, mean AUC (48-72) [1, 8]: 4.38
- median time to first use of opioid rescue medication ([1]; single subacromial dose, ITT): 1.4 h
- percentage of subjects opioid free during 72 hours after surgery ([1]; single subacromial dose, ITT): 27.6%
- Tmax [2]: 1.03 h
- t1/2, mean [2]: 6.65 h
- tmax median [2]: 1.03 h
- half-life ([2]; t1/2, mean): 5.93 h
- Pain intensity on movement 0 to 48 hours, Mean [3]: 5.87
- Fatal TEAE, number of subjects ([4]; Part 2 (N = 148 per group)): 0
- Fatal TEAE, percent of subjects ([4]; Part 2 (N = 148 per group)): (0.0%)
- At Least One LogPad-Solicited TEAE, number of subjects ([4]; human, in vivo): 132
- At Least One LogPad-Solicited TEAE, percent of subjects ([4]; human, in vivo): (89.2%)
- At Least One Serious TEAE, number of subjects ([4]; human, in vivo): 3
- At Least One Serious TEAE, percent of subjects ([4]; human, in vivo): (2.0%)
- At Least One Serious and Related TEAE, number of subjects ([4]; human, in vivo): 0
- At Least One Serious and Related TEAE, percent of subjects ([4]; human, in vivo): (0.0%)
- At Least One Severe and Related TEAE, number of subjects ([4]; human, in vivo): 0
- At Least One Severe and Related TEAE, percent of subjects ([4]; human, in vivo): (0.0%)
- At Least One Spontaneously-reported TEAE, number of subjects ([4]; human, in vivo): 138
- At Least One Spontaneously-reported TEAE, percent of subjects ([4]; human, in vivo): (93.2%)
- At Least One TEAE Leading to Study Discontinuation, number of subjects ([4]; human, in vivo): 1
- At Least One TEAE Leading to Study Discontinuation, percent of subjects ([4]; human, in vivo): (0.7%)
- At Least One TEAE, number of subjects ([4]; human, in vivo): 146
- At Least One TEAE, percent of subjects ([4]; human, in vivo): (98.6%)
- TEAE Maximum Relationship to Study Drug: Not Related, number of subjects ([4]; human, in vivo): 42
- TEAE Maximum Relationship to Study Drug: Not Related, percent of subjects ([4]; human, in vivo): (28.4%)
- TEAE Maximum Relationship to Study Drug: Related, number of subjects ([4]; human, in vivo): 104
- TEAE Maximum Relationship to Study Drug: Related, percent of subjects ([4]; human, in vivo): (70.3%)
- TEAE Maximum Severity: Mild, number of subjects ([4]; human, in vivo): 92
- TEAE Maximum Severity: Mild, percent of subjects ([4]; human, in vivo): (62.2%)
- TEAE Maximum Severity: Moderate, number of subjects ([4]; human, in vivo): 49
- TEAE Maximum Severity: Moderate, percent of subjects ([4]; human, in vivo): (33.1%)
- TEAE Maximum Severity: Severe, number of subjects ([4]; human, in vivo): 5
- TEAE Maximum Severity: Severe, percent of subjects ([4]; human, in vivo): (3.4%)
- treated subjects with treatment-emergent serious adverse events ([4]; human, in vivo): 3 subjects
- Total Morphine-equivalent Opioid Medication Use, MEDD 0-72 hours, Median (Q1, Q3) ([5]; Cohort 1 (Laparotomy)): 63.0 (34.0, 152.0) mg
- Pain Intensity on Movement AUC 0-24 hours, LS Mean (SE) ([5]; Cohort 1 (Laparotomy)): 6.3 (0.48)
- Pain Intensity on Movement AUC 0-48 hours, LS Mean (SE) ([5]; Cohort 1 (Laparotomy)): 6.0 (0.49)
- Pain Intensity on Movement AUC 0-72 hours, LS Mean (SE) ([5]; Cohort 1 (Laparotomy)): 5.8 (0.51)
- Pain Intensity on Movement AUC 24-48 hours, LS Mean (SE) ([5]; Cohort 1 (Laparotomy)): 5.7 (0.56)
- Pain Intensity on Movement AUC 48-72 hours, LS Mean (SE) ([5]; Cohort 1 (Laparotomy)): 5.3 (0.60)
- Repeated Measures Pain Intensity on Movement, All Timepoints 0-72 hr, LS Mean (SE) ([5]; Cohort 1 (Laparotomy)): 5.9 (0.35)
- Total Morphine-equivalent Opioid Medication Use, MEDD 0-72 hours, Median (Q1, Q3) [5, 9]: 22.5 (12.5, 34.5) mg
- Pain Intensity on Movement AUC 0-24 hours, LS Mean (SE) [5, 9]: 4.8 (0.47)
- Pain Intensity on Movement AUC 0-48 hours, LS Mean (SE) [5, 9]: 4.4 (0.45)
- Pain Intensity on Movement AUC 0-72 hours, LS Mean (SE) [5, 9]: 3.9 (0.45)
- Pain Intensity on Movement AUC 24-48 hours, LS Mean (SE) [5, 9]: 4.0 (0.22)
- Pain Intensity on Movement AUC 48-72 hours, LS Mean (SE) [5, 9]: 2.8 (0.52)
- Repeated Measures Pain Intensity on Movement, All Timepoints 0-72 hr, LS Mean (SE) [5, 9]: 3.6 (0.32)
- Cmax ([6]; Cohort 1): 251 ng/mL
- AUC(0-t) ([6]; Cohort 1, read-out: AUC(0-72), mean): 8460 ng·h/mL
- AUC(0-t) ([6]; Cohort 1, read-out: AUC(0-last), mean): 7780 ng·h/mL
- Tmax ([6]; Cohort 1, read-out: Tmax, median): 16 h
- Cmax ([6]; Cohort 2): 371 ng/mL
- AUC(0-t) ([6]; Cohort 2, read-out: AUC(0-72), mean): 6770 ng·h/mL
- AUC(0-t) ([6]; Cohort 2, read-out: AUC(0-last), mean): 6620 ng·h/mL
- Tmax ([6]; Cohort 2, read-out: Tmax, median): 1 h
- At Least One Cardiovascular TEAE ([7]; Cohort 1): 7 (39%)
- At Least One Neurological TEAE ([7]; Cohort 1): 4 (22%)
- At Least One Non-Opioid TEAE ([7]; Cohort 1): 17 (94%)
- At Least One Serious TEAE ([7]; Cohort 1): 4 (22%)
- At Least One Serious and Related TEAE ([7]; Cohort 1): 0
- At Least One Severe and Related TEAE ([7]; Cohort 1): 0
- At Least One TEAE ([7]; Cohort 1): 17 (94%)
- At Least One TEAE Leading to Study Discontinuation ([7]; Cohort 1): 0
- At Least One Wound Infection REAE ([7]; Cohort 1): 2 (11%)
- Deaths ([7]; Cohort 1): 0
- TEAE Maximum Relationship to Study Drug: Not Related ([7]; Cohort 1): 13 (72%)
- TEAE Maximum Relationship to Study Drug: Related ([7]; Cohort 1): 4 (22%)
- TEAE Maximum Severity: Mild ([7]; Cohort 1): 2 (11%)
- TEAE Maximum Severity: Moderate ([7]; Cohort 1): 11 (61%)
- TEAE Maximum Severity: Severe ([7]; Cohort 1): 4 (22%)
- At Least One Cardiovascular TEAE ([7]; Cohort 2): 2 (10%)
- At Least One Neurological TEAE ([7]; Cohort 2): 10 (50%)
- At Least One Non-Opioid TEAE ([7]; Cohort 2): 19 (95%)
- At Least One Serious TEAE ([7]; Cohort 2): 1 (5%)
- At Least One Serious and Related TEAE ([7]; Cohort 2): 0
- At Least One Severe and Related TEAE ([7]; Cohort 2): 1 (5%)
- At Least One TEAE ([7]; Cohort 2): 20 (100%)
- At Least One TEAE Leading to Study Discontinuation ([7]; Cohort 2): 1 (5%)
- At Least One Wound Infection REAE ([7]; Cohort 2): 1 (5%)
- Deaths ([7]; Cohort 2): 0
- TEAE Maximum Relationship to Study Drug: Not Related ([7]; Cohort 2): 10 (50%)
- TEAE Maximum Relationship to Study Drug: Related ([7]; Cohort 2): 10 (50%)
- TEAE Maximum Severity: Mild ([7]; Cohort 2): 2 (10%)
- TEAE Maximum Severity: Moderate ([7]; Cohort 2): 13 (65%)
- TEAE Maximum Severity: Severe ([7]; Cohort 2): 5 (25%)
